Patent publication US20220112479A1, “COMPOUNDS STABILIZING AMYLASES IN LIQUIDS” (BASF SE, priority 2018, published 2022)

Tests used:
Assay type in all cases: biochemical
Design in all cases: key: % of activity in reference formulation at time 0
Amylase = assay: amylase storage stability in liquid laundry formulation (pNP release from Ethyliden-blocked-pNPG7); details: 2.5 wt % component (a), storage at 37° C.
Description: The storage stability of amylase was assessed at 37° C.
Base test formulations were manufactured by making base formulations VI to IX by mixing the components according to Table 4.
Amylase activity at certain points in time as indicated in Table 5 was measured quantitatively by the release of the chromophore para-nitrophenol (pNP) from the substrate (Ethyliden-blocked-pNPG7, Roche Applied Science 10880078103). The alpha-amylase degrades the substrate into smaller molecules and α-glucosidase (Roche Applied Science 11626329103), which is present in excess compared to the amylase, process these smaller products until pNP is released; the release of pNP, measured via an increase of absorption at 405 nm, is directly proportional to the amylase activity of the sample. Amylase standard: Termamyl 120 L (Sigma 3403).
The amylolytic activity values provided were calculated referring to the value determined in the reference formulation at the time 0.
The nomenclature of formulations is as follows: the Roman number before the full stop characterizes the base formulation, the Arabian number the type of compound (A.# compound according to invention (component (a)); B.# comparative compound).

Amy1=Stainzyme = assay: amylase storage stability in liquid formulation (pNP release from Ethyliden-blocked-pNPG7); details: base formulation I., 1.5 wt % component (a), storage at 37° C.
Description: (§1) The storage stability of amylase was assessed at 37° C. Base test formulations were manufactured by making base formulations I to V by mixing the components according to Table 1. Amylases used: Amy1=Stainzyme, Amy2=Amplify, Amy3=Stainzyme Plus L (12L) The respective component (a) or comparative compound was added, if applicable, to the respective base formulation in amounts as indicated in Table 1. The amount of amylase as provided in Table 1 refers to active protein. Water was added to accomplish the balance to 100. […] Amylase activity at certain points in time as indicated in Table 2 was measured quantitatively by the release of the chromophore para-nitrophenol (pNP) from the substrate ([…]-blocked-pNPG7, Roche Applied Science 10880078103). The alpha-amylase degrades the substrate into smaller molecules and α-glucosidase (Roche Applied Science 11626329103), which is present in excess compared to the amylase, process these smaller products until pNP is released; the release of pNP, measured via an increase of absorption at 405 nm, is directly proportional to the amylase activity of the sample. Amylase standard: […] 120 L (Sigma 3403). […] The amylolytic activity values provided were calculated referring to the value determined in the reference formulation at the time 0. The nomenclature of formulations is as follows: the Roman number before the full stop characterizes the base formulation, the Arabian number the type of compound (A.# compound according to invention (component (a)); B.# comparative compound).

Amy2=Amplify = assay: as above; details: base formulation III., 1.5 wt % component (a), storage at 37° C.
Description: as §1

## CCOC(=O)CC(CC(=O)OCC)(OC(C)=O)C(=O)OCC [A.5, Acetyltriethylcitrate]
Amylase; laundry base formulation IX. (2.5 DTPA), 3 d
  amylase activity, referring to reference formulation at time 0: 91
Amylase; laundry base formulation IX. (2.5 DTPA), 7 d
  amylase activity, referring to reference formulation at time 0: 78
Amylase; laundry base formulation IX. (2.5 DTPA), 14 d
  amylase activity, referring to reference formulation at time 0: 69
Amylase; laundry base formulation IX. (2.5 DTPA), 21 d
  amylase activity, referring to reference formulation at time 0: 61
Amylase; laundry base formulation IX. (2.5 DTPA), 28 d
  amylase activity, referring to reference formulation at time 0: 53
Amylase; laundry base formulation IX. (2.5 DTPA), T0
  amylase activity, referring to reference formulation at time 0: 98
Amylase; laundry base formulation VII. (2.0 EDTA), 3 d
  amylase activity, referring to reference formulation at time 0: 92
Amylase; laundry base formulation VII. (2.0 EDTA), 7 d
  amylase activity, referring to reference formulation at time 0: 81
Amylase; laundry base formulation VII. (2.0 EDTA), 14 d
  amylase activity, referring to reference formulation at time 0: 72
Amylase; laundry base formulation VII. (2.0 EDTA), 21 d
  amylase activity, referring to reference formulation at time 0: 66
Amylase; laundry base formulation VII. (2.0 EDTA), 28 d
  amylase activity, referring to reference formulation at time 0: 61
Amylase; laundry base formulation VII. (2.0 EDTA), T0
  amylase activity, referring to reference formulation at time 0: 98
Amylase; laundry base formulation VIII. (2.5 DTPA, no Savinase), 3 d
  amylase activity, referring to reference formulation at time 0: 93
Amylase; laundry base formulation VIII. (2.5 DTPA, no Savinase), 7 d
  amylase activity, referring to reference formulation at time 0: 83
Amylase; laundry base formulation VIII. (2.5 DTPA, no Savinase), 14 d
  amylase activity, referring to reference formulation at time 0: 74
Amylase; laundry base formulation VIII. (2.5 DTPA, no Savinase), 21 d
  amylase activity, referring to reference formulation at time 0: 67
Amylase; laundry base formulation VIII. (2.5 DTPA, no Savinase), 28 d
  amylase activity, referring to reference formulation at time 0: 64
Amylase; laundry base formulation VIII. (2.5 DTPA, no Savinase), T0
  amylase activity, referring to reference formulation at time 0: 100
Amy1=Stainzyme; 3 d
  amylase activity, referring to reference formulation at time 0: 91
Amy1=Stainzyme; 7 d
  amylase activity, referring to reference formulation at time 0: 80
Amy1=Stainzyme; 14 d
  amylase activity, referring to reference formulation at time 0: 72
Amy1=Stainzyme; 21 d
  amylase activity, referring to reference formulation at time 0: 63
Amy1=Stainzyme; 28 d
  amylase activity, referring to reference formulation at time 0: 55
Amy1=Stainzyme; 42 d
  amylase activity, referring to reference formulation at time 0: 37
Amy1=Stainzyme; T0
  amylase activity, referring to reference formulation at time 0: 97
Amy2=Amplify; 3 d
  amylase activity, referring to reference formulation at time 0: 96
Amy2=Amplify; 7 d
  amylase activity, referring to reference formulation at time 0: 92
Amy2=Amplify; 14 d
  amylase activity, referring to reference formulation at time 0: 87
Amy2=Amplify; 21 d
  amylase activity, referring to reference formulation at time 0: 78
Amy2=Amplify; 28 d
  amylase activity, referring to reference formulation at time 0: 71
Amy2=Amplify; 42 d
  amylase activity, referring to reference formulation at time 0: 55
Amy2=Amplify; T0
  amylase activity, referring to reference formulation at time 0: 96
